From patent US20080274892A1, “Novel Haloalkylsulfonanilide Derivative, Herbicide, and Method of Use Thereof” (priority 2005, published 2008)

Columns and labels:
false pimpernel [1] = experiment: Test Example 1: herbicidal efficacy on rice paddy weeds pre-emergence; assay type: in vivo, Lindernia pyxidaria; conditions: dosage 1000 g/ha, 21 days
bulrush [2] = experiment: Test Example 4: low dosage test for rice paddy weeds; assay type: in vivo, Scirpus juncoides; conditions: 300 g/ha as an active ingredient; plants treated at the one leaf stage; 21 days after treatment; vs untreated control
Summary of the method: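 Compound applied as a formulation at 300 g/ha to one-leaf bulrush grown in flooded clay loam (5 cm water) in a hot house. After 21 days, growth inhibition versus untreated plants rated on a 0–4 scale, with 4 meaning 90–100%.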

[3] = tested on: paddy rice plant (cultivar: Nihonbare); experiment: Test Example 3: phytotoxicity test for transplanted paddy rice plant; assay type: in vivo; conditions: dosage 1000 g/ha; transplanted rice, treated 5 days after transplantation; 21 days after treatment
Summary of the method: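 Clay loam soil was placed in a 75 cm^2 plastic pot and flooded to a water depth of 5 cm. Two Nihonbare paddy rice plants at the two-leaf stage were transplanted 1 cm deep and grown in a hot house. After treatment, pots stayed in the hot house for 21 days, and phytotoxicity was then graded against an untreated control.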

bulrush [4] = experiment: Test Example 2: herbicidal efficacy on rice paddy weeds post-emergence; assay type: in vivo, Scirpus juncoides; conditions: dosage 1000 g/ha; post-emergence, one leaf stage; 21 days after treatment
false pimpernel [5] = experiment: as above; assay type: in vivo, Lindernia pyxidaria; conditions: dosage 1000 g/ha; post-emergence, one leaf stage; 21 days after treatment
barnyard glass = experiment: as above; assay type: in vivo, Echinochloa crus-galli; conditions: dosage 1000 g/ha; post-emergence, one leaf stage; 21 days after treatment
Summary of the method: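 Efficacy on paddy weeds was scored on a 0 to 4 growth-inhibition scale: 4 for 90%-100%, 3 for 70%-89%, 2 for 40%-69%, 1 for 1%-39% and 0 for 0%. Barnyard glass was grown in clay loam in 75 cm^2 pots under 5 cm of water in a hot house. It was compared with untreated pots 21 days after treatment.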

bulrush [6] = experiment: Test Example 1: herbicidal efficacy on rice paddy weeds pre-emergence; assay type: in vivo, Scirpus juncoides; conditions: dosage 1000 g/ha, 21 days
[7] = tested on: transplanted paddy rice plant and Bulrush; experiment: Test Example 5: selectivity between transplanted paddy rice plant and weeds; assay type: in vivo; conditions: (highest dosage with no phytotoxicity to paddy rice)/(lowest dosage with effective level 4 on Bulrush); rice 3000-100 g/ha, Bulrush 300-10 g/ha; 21 days
Summary of the method: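 Scoring ran 21 days after treatment in a hothouse on a 0–4 scale (4 = 90–100%, 3 = 70–89%, 2 = 40–69%, 1 = 1–39%, 0 = none) relative to untreated plants. Post-emergence bulrush received 10, 30, 100 and 300 g/ha active ingredient. Transplanted rice received 100, 300, 1000 and 3000 g/ha to assess crop injury.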

CC1(C)CN(Cc2ccccc2N(C(=O)Oc2ccccc2)S(=O)(=O)C(F)(F)F)C(=O)O1 [1-85]
False pimpernel pre (herbicidal efficacy grade) (false pimpernel [1]): 4 (90%-100% of herbicidal efficacy or phytotoxicity)
Herbicide effect to Bulrush (bulrush [2]): 4 (90%-100% of herbicidal efficacy or phytotoxicity)
Phytotoxicity to paddy rice [3]: 2 (40%-69% of herbicidal efficacy or phytotoxicity)
Bulrush post (herbicidal efficacy grade) (bulrush [4]): 4 (90%-100% of herbicidal efficacy or phytotoxicity)
False pimpernel post (herbicidal efficacy grade) (false pimpernel [5]): 4 (90%-100% of herbicidal efficacy or phytotoxicity)
Burnyard grass post (herbicidal efficacy grade) (barnyard glass): 4 (90%-100% of herbicidal efficacy or phytotoxicity)
Bulrush pre (herbicidal efficacy grade) (bulrush [6]): 4 (90%-100% of herbicidal efficacy or phytotoxicity)
Selective Index [7]: 10

CC(C)COC(=O)N(c1ccccc1CN1CC2(CCC2)OC1=O)S(=O)(=O)C(F)(F)F [1-86]
False pimpernel pre (herbicidal efficacy grade) (false pimpernel [1]): 4 (90%-100% of herbicidal efficacy or phytotoxicity)
Herbicide effect to Bulrush (bulrush [2]): 4 (90%-100% of herbicidal efficacy or phytotoxicity)
Phytotoxicity to paddy rice [3]: 1 (1%-39% of herbicidal efficacy or phytotoxicity)
Bulrush post (herbicidal efficacy grade) (bulrush [4]): 4 (90%-100% of herbicidal efficacy or phytotoxicity)
False pimpernel post (herbicidal efficacy grade) (false pimpernel [5]): 4 (90%-100% of herbicidal efficacy or phytotoxicity)
Burnyard grass post (herbicidal efficacy grade) (barnyard glass): 4 (90%-100% of herbicidal efficacy or phytotoxicity)
Bulrush pre (herbicidal efficacy grade) (bulrush [6]): 4 (90%-100% of herbicidal efficacy or phytotoxicity)
Selective Index [7]: 10

CC(C)COC(=O)N(c1ccccc1CN1CC2(CC2)OC1=O)S(=O)(=O)C(F)(F)F [1-89]
False pimpernel pre (herbicidal efficacy grade) (false pimpernel [1]): 4 (90%-100% of herbicidal efficacy or phytotoxicity)
Herbicide effect to Bulrush (bulrush [2]): 4 (90%-100% of herbicidal efficacy or phytotoxicity)
Phytotoxicity to paddy rice [3]: 1 (1%-39% of herbicidal efficacy or phytotoxicity)
Bulrush post (herbicidal efficacy grade) (bulrush [4]): 4 (90%-100% of herbicidal efficacy or phytotoxicity)
False pimpernel post (herbicidal efficacy grade) (false pimpernel [5]): 4 (90%-100% of herbicidal efficacy or phytotoxicity)
Burnyard grass post (herbicidal efficacy grade) (barnyard glass): 4 (90%-100% of herbicidal efficacy or phytotoxicity)
Bulrush pre (herbicidal efficacy grade) (bulrush [6]): 4 (90%-100% of herbicidal efficacy or phytotoxicity)
Selective Index [7]: 10

CCCOC(=O)N(c1ccccc1CN1CC(C)(CC)OC1=O)S(=O)(=O)C(F)(F)F (stereo not shown) [1-90]
False pimpernel pre (herbicidal efficacy grade) (false pimpernel [1]): 4 (90%-100% of herbicidal efficacy or phytotoxicity)
Herbicide effect to Bulrush (bulrush [2]): 4 (90%-100% of herbicidal efficacy or phytotoxicity)
Phytotoxicity to paddy rice [3]: 3 (70%-89% of herbicidal efficacy or phytotoxicity)
Bulrush post (herbicidal efficacy grade) (bulrush [4]): 4 (90%-100% of herbicidal efficacy or phytotoxicity)
False pimpernel post (herbicidal efficacy grade) (false pimpernel [5]): 4 (90%-100% of herbicidal efficacy or phytotoxicity)
Burnyard grass post (herbicidal efficacy grade) (barnyard glass): 4 (90%-100% of herbicidal efficacy or phytotoxicity)
Bulrush pre (herbicidal efficacy grade) (bulrush [6]): 4 (90%-100% of herbicidal efficacy or phytotoxicity)
Selective Index [7]: 30

CCCCCOC(=O)N(c1ccccc1CN1CC(C)(CC)OC1=O)S(=O)(=O)C(F)(F)F (stereo not shown) [1-91]
False pimpernel pre (herbicidal efficacy grade) (false pimpernel [1]): 4 (90%-100% of herbicidal efficacy or phytotoxicity)
Herbicide effect to Bulrush (bulrush [2]): 4 (90%-100% of herbicidal efficacy or phytotoxicity)
Phytotoxicity to paddy rice [3]: 3 (70%-89% of herbicidal efficacy or phytotoxicity)
Bulrush post (herbicidal efficacy grade) (bulrush [4]): 4 (90%-100% of herbicidal efficacy or phytotoxicity)
False pimpernel post (herbicidal efficacy grade) (false pimpernel [5]): 4 (90%-100% of herbicidal efficacy or phytotoxicity)
Burnyard grass post (herbicidal efficacy grade) (barnyard glass): 4 (90%-100% of herbicidal efficacy or phytotoxicity)
Bulrush pre (herbicidal efficacy grade) (bulrush [6]): 4 (90%-100% of herbicidal efficacy or phytotoxicity)
Selective Index [7]: 30
